Values of other authors in patent US20030167159A1, “Method for determining molecular surface areas and volumes” (California Institute of Technology, priority 2001, published 2003).
One block for each molecule: values may come before it. Where a SMILES comes first, the peptide text is derived from it.

What was measured:
Conditions in all cases: as reported in Bursulaya et al.
[1] = target: T1, L-Arabinose binding protein (ara) (Escherichia coli, UniProt P02924)
T1 sequence (P02924 24-329): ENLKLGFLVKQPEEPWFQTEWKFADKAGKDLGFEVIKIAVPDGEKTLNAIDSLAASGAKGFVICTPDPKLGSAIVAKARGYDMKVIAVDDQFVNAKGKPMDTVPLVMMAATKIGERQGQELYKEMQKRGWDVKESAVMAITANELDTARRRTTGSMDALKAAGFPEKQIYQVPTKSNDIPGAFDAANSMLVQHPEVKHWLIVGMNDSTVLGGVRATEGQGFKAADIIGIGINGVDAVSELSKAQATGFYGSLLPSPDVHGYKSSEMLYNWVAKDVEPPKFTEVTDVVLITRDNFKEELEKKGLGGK

Carboxypeptidase A (car) = target: T2, Carboxypeptidase A (car) (Bos taurus, UniProt P00730)
T2 sequence (P00730 111-419): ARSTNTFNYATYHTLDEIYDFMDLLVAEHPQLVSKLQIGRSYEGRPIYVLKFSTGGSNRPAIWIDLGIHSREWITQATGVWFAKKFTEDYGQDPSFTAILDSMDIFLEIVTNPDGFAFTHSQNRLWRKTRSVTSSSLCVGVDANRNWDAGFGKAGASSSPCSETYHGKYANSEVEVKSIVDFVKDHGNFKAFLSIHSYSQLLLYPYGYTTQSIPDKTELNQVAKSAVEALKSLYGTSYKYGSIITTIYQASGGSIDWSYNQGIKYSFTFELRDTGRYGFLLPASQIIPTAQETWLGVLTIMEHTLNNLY

ε-Thrombin (ret) = target: T3, ε-Thrombin (ret) (Bos taurus, UniProt P00735)
T3 construct: ε-Thrombin (ret)

Trypsin (trp) = target: T4, Trypsin (trp) (Bos taurus, UniProt P00760)
T4 sequence (P00760 24-246): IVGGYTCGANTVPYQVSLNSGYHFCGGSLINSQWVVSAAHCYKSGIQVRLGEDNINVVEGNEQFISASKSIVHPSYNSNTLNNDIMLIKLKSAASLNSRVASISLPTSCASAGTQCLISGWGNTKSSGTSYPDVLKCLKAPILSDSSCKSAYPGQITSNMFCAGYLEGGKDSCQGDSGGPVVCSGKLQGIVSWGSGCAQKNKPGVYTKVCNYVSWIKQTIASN

[2] = target: T5, Cytochrome P-450cam (cyt) (Pseudomonas putida, UniProt P00183)
T5 sequence (P00183 1-415): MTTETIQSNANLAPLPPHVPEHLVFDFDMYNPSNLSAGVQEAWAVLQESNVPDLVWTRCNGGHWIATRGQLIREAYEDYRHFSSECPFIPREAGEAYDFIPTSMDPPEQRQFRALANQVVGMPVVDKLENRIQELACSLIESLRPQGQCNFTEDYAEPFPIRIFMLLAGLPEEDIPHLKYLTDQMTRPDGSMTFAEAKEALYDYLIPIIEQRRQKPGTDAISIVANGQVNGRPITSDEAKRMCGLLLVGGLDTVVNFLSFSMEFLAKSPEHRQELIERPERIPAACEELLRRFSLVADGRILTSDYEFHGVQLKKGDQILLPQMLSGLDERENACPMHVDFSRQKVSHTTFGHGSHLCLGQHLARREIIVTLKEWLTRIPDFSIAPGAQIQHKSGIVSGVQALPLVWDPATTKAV

Intestinal FABP (fab) = target: T6, Intestinal FABP (fab) (Rattus norvegicus, UniProt P02693)
T6 sequence (P02693 1-132): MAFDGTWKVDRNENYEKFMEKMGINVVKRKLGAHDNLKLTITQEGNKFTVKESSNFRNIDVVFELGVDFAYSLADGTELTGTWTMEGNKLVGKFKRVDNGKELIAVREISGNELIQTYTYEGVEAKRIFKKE

SMILES: O[C@@H]1[C@@H](O)[C@@H](O)CO[C@H]1O [1abe]
percentage of ligands in the 10037-compound database that score better than the co-crystal ligand, DOCK [1]: 0.5% | percentage of ligands in the 10037-compound database that score better than the co-crystal ligand, FlexX [1]: 0.2% | percentage of ligands in the 10037-compound database that score better than the co-crystal ligand, ICM [1]: 0.01%

SMILES: C[C@H]1O[C@H](O)[C@H](O)[C@@H](O)[C@H]1O [1abf]
percentage of ligands in the 10037-compound database that score better than the co-crystal ligand, DOCK [1]: 1.2% | percentage of ligands in the 10037-compound database that score better than the co-crystal ligand, FlexX [1]: 0.2% | percentage of ligands in the 10037-compound database that score better than the co-crystal ligand, ICM [1]: 0.03%

SMILES: O=C(O)C[C@@H](Cc1ccccc1)C(=O)O [1cbx]
percentage of ligands in the 10037-compound database that score better than the co-crystal ligand, DOCK (Carboxypeptidase A (car)): 36.8% | percentage of ligands in the 10037-compound database that score better than the co-crystal ligand, FlexX (Carboxypeptidase A (car)): 2.7% | percentage of ligands in the 10037-compound database that score better than the co-crystal ligand, ICM (Carboxypeptidase A (car)): 0.2%

SMILES: Cc1ccc(S(=O)(=O)N[C@@H](Cc2ccc(C(=N)N)cc2)C(=O)N2CCCCC2)cc1 [1ett]
percentage of ligands in the 10037-compound database that score better than the co-crystal ligand, DOCK (ε-Thrombin (ret); Dock): 0.9% | percentage of ligands in the 10037-compound database that score better than the co-crystal ligand, FlexX (ε-Thrombin (ret); FlexX): 9% | percentage of ligands in the 10037-compound database that score better than the co-crystal ligand, ICM (ε-Thrombin (ret); ICM): 0.06%

SMILES: Cc1ccc(S(=O)(=O)N[C@@H](Cc2cccc(C(=N)N)c2)C(=O)N2CCCCC2)cc1 [1pph]
percentage of ligands in the 10037-compound database that score better than the co-crystal ligand, DOCK (Trypsin (trp)): 37% | percentage of ligands in the 10037-compound database that score better than the co-crystal ligand, FlexX (Trypsin (trp)): 0.6% | percentage of ligands in the 10037-compound database that score better than the co-crystal ligand, ICM (Trypsin (trp)): 0.3%

SMILES: NCCc1ccccc1 [1tnj]
percentage of ligands in the 10037-compound database that score better than the co-crystal ligand, DOCK (Trypsin (trp)): 45.1% | percentage of ligands in the 10037-compound database that score better than the co-crystal ligand, FlexX (Trypsin (trp)): 47.9% | percentage of ligands in the 10037-compound database that score better than the co-crystal ligand, ICM (Trypsin (trp)): 1.1%

SMILES: N[C@H]1C[C@@H]1c1ccccc1 [1tnl]
percentage of ligands in the 10037-compound database that score better than the co-crystal ligand, DOCK (Trypsin (trp)): 82.9% | percentage of ligands in the 10037-compound database that score better than the co-crystal ligand, FlexX (Trypsin (trp)): 39.1% | percentage of ligands in the 10037-compound database that score better than the co-crystal ligand, ICM (Trypsin (trp)): 51.6%

SMILES: CC12CCC(CC1=O)C2(C)C (stereo not drawn) [2cpp]
percentage of ligands in the 10037-compound database that score better than the co-crystal ligand, DOCK ([2]; Dock): 7.3% | percentage of ligands in the 10037-compound database that score better than the co-crystal ligand, FlexX ([2]; FlexX): 12.6% | percentage of ligands in the 10037-compound database that score better than the co-crystal ligand, ICM ([2]; ICM): 11.7%

Next, values leading:

percentage of ligands in the 10037-compound database that score better than the co-crystal ligand, DOCK (Trypsin (trp)): 28.7% | percentage of ligands in the 10037-compound database that score better than the co-crystal ligand, FlexX (Trypsin (trp)): 30.8% | percentage of ligands in the 10037-compound database that score better than the co-crystal ligand, ICM (Trypsin (trp)): 0.3%
SMILES: NCC1CCCCC1 [1tng]

percentage of ligands in the 10037-compound database that score better than the co-crystal ligand, DOCK (Trypsin (trp)): 58.1% | percentage of ligands in the 10037-compound database that score better than the co-crystal ligand, FlexX (Trypsin (trp)): 37.1% | percentage of ligands in the 10037-compound database that score better than the co-crystal ligand, ICM (Trypsin (trp)): 14.6%
SMILES: NCCCc1ccccc1 [1tnk]

percentage of ligands in the 10037-compound database that score better than the co-crystal ligand, DOCK (Intestinal FABP (fab); Dock): 7.1% | percentage of ligands in the 10037-compound database that score better than the co-crystal ligand, FlexX (Intestinal FABP (fab); FlexX): 99.3% | percentage of ligands in the 10037-compound database that score better than the co-crystal ligand, ICM (Intestinal FABP (fab); ICM): 0.5%
SMILES: CCCCCCCCCCCCCCCC(=O)O [2ifb]

percentage of ligands in the 10037-compound database that score better than the co-crystal ligand, DOCK (Carboxypeptidase A (car)): 14.2% | percentage of ligands in the 10037-compound database that score better than the co-crystal ligand, FlexX (Carboxypeptidase A (car)): 1.4% | percentage of ligands in the 10037-compound database that score better than the co-crystal ligand, ICM (Carboxypeptidase A (car)): 0.3%
SMILES: NCC(=O)N[C@@H](Cc1ccc(O)cc1)C(=O)O [3cpa] (H-Gly-Tyr-OH)

percentage of ligands in the 10037-compound database that score better than the co-crystal ligand, DOCK (Trypsin (trp)): 20.3% | percentage of ligands in the 10037-compound database that score better than the co-crystal ligand, FlexX (Trypsin (trp)): 14% | percentage of ligands in the 10037-compound database that score better than the co-crystal ligand, ICM (Trypsin (trp)): 0.1%
SMILES: N=C(N)c1ccccc1 [3ptb]

percentage of ligands in the 10037-compound database that score better than the co-crystal ligand, DOCK [1]: 0.2% | percentage of ligands in the 10037-compound database that score better than the co-crystal ligand, FlexX [1]: 0.4% | percentage of ligands in the 10037-compound database that score better than the co-crystal ligand, ICM [1]: 0.02%
SMILES: OC[C@H]1OC(O)[C@H](O)[C@@H](O)[C@H]1O (stereo partly drawn) [5abp]
